Results taken from US20060122282A1, “METHOD FOR TREATING SKIN DISORDERS WITH XANTHOPHYLLS” (priority 2004, published 2006).

Test: blister healing of the skin (blisters raised, roofs cut off)
Type: in vivo, human
Conditions: topical application before raising the blister; alone or in combination with xanthophylls
Excerpt: Experiments have been performed wherein blisters have been raised and the roofs cut off of the skins of individuals of various ages.

SMILES: CC1=C(/C=C/C(C)=C/C=C/C(C)=C/C(=O)O)C(C)(C)CCC1 [tretinoin, all-trans retinoic acid]
- healing time of blisters: halves
